For one compound, Km and Vmax results are on record in ChEMBL document CHEMBL1130461, “Polyclonal catalytic antibody for hetero-cycloaddition of hepta-1,3-diene with ethyl glyoxylate an approach to the synthesis of 2-nonulosonic acid analogs” (Bioorg Med Chem Lett, 1997).

Series [1] can be described thus: Michaelis-Menten constant in polyclonal antibody reactions. Type of series: ADME.
Series [2] can be described thus: Vmax in polyclonal antibody reactions. Type of series: ADME.

As for `C=C/C=C/CCOC(=O)CCC(=O)OCc1ccccc1`, the Michaelis constant (Km) in series [1] worked out at 96 µM. In series [2], the Vmax came to 0.98 µM/min.
